The record followed here is patent US12571794B2, “Epigen AU/11: a natural matrix for restoring homeostasis in cancer cell-infiltrated tissue” (priority 2024, dated 2026).

Data set [1] has as its system non-cancerous spheroids (MSC, HuDe). In words: 3D spheroids toxicity, Cell Titer-Glo 3D (ATP). The conditions noted are these: 72 hours; EpigenAU/11 0.22 mg/ml, CDDP 15 μg/ml. The class given is cell-based, human.
Source text: Additionally, two 3D spheroids from non-cancerous cell lines were included in the study: • MSC (BM-derived Mesenchymal Stromal Cells): Multipotent stromal cells derived from bone marrow. • HuDe (Human Dermal Fibroblasts): Non-cancerous dermal fibroblast cells.
Data set [2] relates to FaDu xenografts. The conditions noted are these: for MITOSIS (amount of mitosis in 2.37 mm^2; 10x): H&E staining of excised tumours. As to the method: Tumour growth curve of FaDu xenografts in athymic mice over 27 days of treatment. […] Tumour volume was measured every other day. Data are represented as mean±SEM; *p<0.05; **p<0.02. One-way ANOVA followed by Fisher's LSD test was used for statistical analysis.
In this investigation, an in vivo trial utilizing FaDu cells was performed to explore this interaction.
All treatments commenced when tumours reached a volume of 0.1 cm^3.
The response in mice was evaluated using criteria akin to RECIST 1.1 guidelines.
For this purpose, immunocompromised mice bearing xenografted FaDu head and neck squamous carcinoma cells were included in the study once tumours reached a volume of 100 mm^3.

For data set [3], the system named is FaDu xenografts. The data set is classed as in vivo, mice. Further details: key to Loss of Straightening reflex / Loss of Cleaning / Loss of Curiosity / Loss of Reactivity / Loss of Spontaneous activity: untreated animal value = 0, plus treated animal value. An excerpt: (§1) The risk (intended as side effects) was estimated through the observation of behavioural parameters (impacting the behaviour itself, the locomotor system, muscle strength and nervous reflexes) and through the potential weight loss of the animal.
Data obtained by animal testing, considered in the context of the risk, are behavioural parameters and body weight loss at the end of experimentation.
The behavioural parameters monitored are listed below: • 1. Loss of Spontaneous activity • 2. Loss of Cleaning • 3. Loss of Curiosity • 4. Loss of Reactivity • 5. Loss of Straightening reflex • 6. Loss of Physical strength • 7. Impairment of Palpebral opening • 8. Palpebral reflex • 9. Tremors • 10. Pallor • 11. Stereotypies • 12. Passivity
The values of the parameters 1-8 are normalized as: “Not treated animal value” (always equal to 0)+“Treated animal value”.
The values of the parameters 9-12 are normalized as: “Not treated animal value”-“Treated animal value”.
The potential weight loss of the treated animals was also assessed.” Data were processed using the formula: 1−[“Body weight of treated animals (day of observation: 27)/body weight of untreated animals (day of observation: 19)]
Data were calculated as “Reduction in the size of tumour mass” by the formula: 1−[“Tumour mass size collected from treated animals (day of observation: 27)/Tumour mass size collected from untreated animals (day of observation: 19)]

Data set [4] has as its system osteosarcoma spheroids (143B, SaOS-2, U-2 OS). In words: 3D spheroids toxicity, Cell Titer-Glo 3D (ATP). The data set is classed as cell-based. Particulars: 72 hours; EpigenAU/11 0.22 mg/ml, CDDP 15 μg/ml. As to the method: The Cell Titer-Glo® 3D Viability Assay was used to quantify ATP as a marker of cell viability. Results are expressed as the survival ratio (%) between treated cells and their corresponding untreated controls.
In addition to the findings above, several partners contributed to the development of more complex in vitro models, including 3D spheroids, which better mimic the three-dimensional structure of tumours and their microenvironment.
The viability of both control and treated cells was assessed 72 hours after the start of treatment by quantifying ATP levels using the Cell Titer-Glo® 3D Viability Assay following the manufacturer's instructions.
(Cellular ATP, detected with luciferase, serves as a proxy for viable cell number.)

Data set [5] concerns explanted biopsies from FaDu graft. The class given is cell-based, human cells grown in immunocompromised mice. The conditions noted are these: 72 hours ex vivo; EpigenAU/11 50 mg/ml (pH 5.6), cisplatin 150 μg/ml, HCl to pH 5.6.
Procedure: Analysis of cell viability in explanted biopsies from the FaDu (9A) and A431 (9B) cell lines was performed after 72 hours of ex vivo treatment. […] Cell viability was analysed using a flow cytometer with the Pacific Blue™ Annexin V/SYTOX™ AADvanced™ Apoptosis Kit, following the manufacturer's instructions. Viability is expressed as a percentage, with untreated controls set at 100%. One-way ANOVA analysis followed by Dunnett's test confirmed significant differences among the groups. Data are represented as mean±SD; *p<0.03;***p<0.0002.
(§3) Analysis of cell viability in explanted biopsies from the FaDu cell lines was performed after 72 hours of ex vivo treatment. […] Cell viability was analysed using a flow cytometer with the Pacific Blue™ Annexin V/SYTOX™ AADvanced™ Apoptosis Kit, following the manufacturer's instructions. Viability is expressed as a percentage, with untreated controls set at 100%. […]
as §3
Following the 72-hour treatment period, cell viability was analysed using flow cytometry.
For data set [6], the system named is bladder tumour organoid Bladder 41. The experiment in a line: Tumour organoid viability with chemotherapeutics, CellTiter-Glo 3D. The data set is classed as cell-based, human. The conditions noted are these: Bladder Cancer patient-derived tumour organoids; chemotherapy combined with EpigenAU/11. As to the method:
(§2) 39A bladder 38, 39B bladder 41, 39C breast 203, 39D Endometrium 12. […] Breast organoids (Breast 203): Treated sequentially with paclitaxel (P, 50 nM)+carboplatin (C, 100 nM) for 72 hours, followed by epirubicin (E, 1 μM)+cyclophosphamide (Cy 7 μM) for an additional 72 hours. Endometrial organoid (Endometrium 12): Treated with carboplatin (C, 100 nM), paclitaxel (P, 100 nM), or their combination for 72 hours. ATP content, measured by CellTiter-Glo® 3D, is expressed as a percentage of cell viability, with untreated controls set at 100%. Statistical analysis was performed using one-way ANOVA followed by Dunnett's test, with significant differences denoted by p<0.002 (**) and p<0.0001 (****). Data are presented as mean±SD.

The test system of data set [7] is Head and Neck Cancer patient-derived tumour organoids. In words: EpigenAU/11 combinations with chemotherapeutics on patient-derived tumour organoids (summary table). The data set is classed as cell-based. The conditions noted are these: chemotherapy combined with EpigenAU/11.
Data set [8] deals with biopsies derived from the FaDu graft. In words: Genome-wide gene expression profiling, ex vivo. Particulars: 6 hours; EpigenAU/11 50 mg/ml, cisplatin 150 μg/ml, alone and combined. The data set is classed as cell-based, human.
On the set-up of data set [9]: species or system mice. Particulars: mouse, in vivo. As to the method: Furthermore, to better understand the potential systemic toxicity of the treatments, an Irwin test was conducted, evaluating a range of physiological and behavioural parameters, including general behaviour, CNS excitement, movement coordination, muscle tone, reflex responses, and autonomic signs.
Parameters assessed include general behaviour, central nervous system (CNS) excitement, movement coordination, muscle tone, reflex responses, and autonomic signs.
as §1

Another data set deals with A431 xenografts. The data set is classed as in vivo, athymic mice. Particulars: excised at end of 15-day treatment, six mice. As to the method: Tumour growth curve of A431 xenografts in athymic mice over 15 days of treatment. […] Tumour volume was measured every other day. Data are represented as mean±SEM; **p<0.02; ****p<0.001.
In this trial, athymic mice were subcutaneously injected with 1×10^6 A431 cells into their flank to develop xenograft tumours.

Data set [10] concerns explanted biopsies from A431 graft. The experiment in a line: Ex vivo explanted biopsies, cell viability by flow cytometry (Annexin V). The class given is cell-based, human cells grown in immunocompromised mice. The conditions noted are these: 72 hours ex vivo; EpigenAU/11 50 mg/ml (pH 5.6), cisplatin 150 μg/ml, HCl to pH 5.6. For orientation: In flow cytometry, cells or beads pass a laser one at a time.
Procedure: Analysis of cell viability in explanted biopsies from the FaDu (9A) and A431 (9B) cell lines was performed after 72 hours of ex vivo treatment. […] Cell viability was analysed using a flow cytometer with the Pacific Blue™ Annexin V/SYTOX™ AADvanced™ Apoptosis Kit, following the manufacturer's instructions. Viability is expressed as a percentage, with untreated controls set at 100%. […] Data are represented as mean±SD; *p<0.03;***p<0.0002.
Analysis of cell viability in explanted biopsies from the A431 cell lines was performed after 72 hours of ex vivo treatment. […] Cell viability was analysed using a flow cytometer with the Pacific Blue™ Annexin V/SYTOX™ AADvanced™ Apoptosis Kit, following the manufacturer's instructions. Viability is expressed as a percentage, with untreated controls set at 100%. […] Data are represented as mean±SD; **p<0.02.
To further substantiate these findings, an ex vivo test was conducted using explanted biopsies from the FaDu and A431 cell lines. These biopsies were generated by injecting the cells into immunocompromised mice, thereby creating a more intricate three-dimensional structure that closely mimics the tumour microenvironment. […] Following the 72-hour treatment period, cell viability was analysed using flow cytometry.

The test system of data set [11] is FaDu, A431 and HuDe cells. In words: Intracellular pH (pHrodo Green AM). The conditions noted are these: EpigenAU/11 0.66 mg/ml or HCl, one hour. The class given is cell-based, human. An excerpt: Cells were labelled with pHrodo™ Green AM Intracellular pH Indicator according to manufacturers' instructions. pH values were normalized with respect to cell number, measured by Nuclear Mask Red staining.

In data set [12] the test system is endometrial tumour organoid Endometrium 12. The conditions noted are these: 72 hours; EpigenAU/11 0.66 mg/ml, carboplatin 100 nM, paclitaxel 100 nM. As to the method:
as §2

Counter-ions that a name gives are not always drawn. Like-named read-outs stand apart in the source and are kept apart here.

Regarding `N.N.[Cl][Pt][Cl]` [Cisplatin], the “viability (ATP levels) of healthy spheroids” value in [1] was “indiscriminately killed both cancerous and healthy cells”. Besides, the tumour progression entry in the data set on FaDu xenografts [2] (27 days, cisplatin 2 mg/kg i.p. every two days) is “stabilization of the disease”. Further, in the data set with FaDu xenografts [2], the “MITOSIS (amount of mitosis in 2.37 mm^2; 10x)” value was 14 (±8). In addition, in the data set on FaDu xenografts [2] (listed as cisplatin), the “MITOSIS (amount of mitosis in 2.37 mm^2; 10x)” value was 14. Also, in the data set on FaDu xenografts [2] (day of observation 27), the “Size of tumor masses (Mean)” value turned out to be 0.50. The MEAN tumour mass with FaDu xenografts [2] (explanted after 27 days of treatment, five mice) is reported as 454 mg. Moreover, the “Body weight (Mean)” value in the data set on FaDu xenografts [2] (mouse, in vivo) worked out at 29.12. The Weight loss in the data set on FaDu xenografts [3] (1−[body weight treated day 27/untreated day 19]) worked out at 0.22. For the same compound, the “Reduction in the size of tumour mass” value in the data set on FaDu xenografts [3] (1−[tumour mass size treated day 27/untreated day 19]) was found to be 0.64. The “IN VIVO BENEFIT SCORE” value with FaDu xenografts [3] (mouse, in vivo) was 0.64. Moreover, in the data set with FaDu xenografts [3] (normalised risk parameter), the “Impairment of Palpebral opening” value is listed as 2.00, the “Loss of Cleaning” value worked out at 1.50, the “Loss of Curiosity” value is recorded as 1.60 and the “Loss of Palpebral reflex” value is listed as 1.20. For the same compound, in the data set with FaDu xenografts [3] (normalised risk parameter), the “Loss of Physical strength” value was 1.30, the “Loss of Reactivity” value is on record as 1.40, the “Loss of Spontaneous activity” value was determined as 1.80 and the “Loss of Straightening reflex” value turned out to be 1.40. In addition, in the data set on FaDu xenografts [3] (normalised risk parameter), the Pallor came out at 2.00, the Passivity came to 1.10, the Stereotypies stood at 0.00 and the Tremors is recorded as 0.80. For the same compound, the “IN VIVO RISK SCORE” value in the data set with FaDu xenografts [3] (sum of risk parameters) is recorded as 16. Further, the “viability (ATP levels) of cancerous spheroids” value in data set [4] was “indiscriminately killed both cancerous and healthy cells”. For the same compound, in [5], the cell death result is recorded as “around 25%”. For the same compound, the “Cooperative Effect with EpigenAU/11” value in data set [6] is reported as “YES”. The “Cooperative Effect with EpigenAU/11” value in [7] is given as “YES”. The “modulation of cancer-related pathways (gene expression)” value in data set [8] is reported as “comparable downregulatory effect across many of the same pathways”. Also, the “reduction in overall biological functions” value in data set [9] was 30-40%. In the data set with A431 xenografts, this compound yielded an MEAN tumour mass of 368 mg. Besides, the cell death entry in data set [10] is “around 30%”.

Regarding `Cl` [HCl, hydrochloric acid], the cell death entry in [5] and in data set [10] was “no significant signs of cell death” each time. In addition, the “intracellular pH” value in data set [11] is “no observable effects”.

Regarding `N.N.O=C([O-])C1(C(=O)[O-])CCC1.[Pt+2]` [carboplatin], in data set [12], the “viability (ATP, untreated = 100%)” value came to 85.1%.
